The values that follow come from US20250163048A1 (Tango Therapeutics, Inc., priority 2022, published 2025).

Like-named read-outs stand apart in the source and are kept apart here.

One assay has as its system MTAP-deleted cell line. In words: viability assay for the MTAP-deleted cell line. The following applies: Homo sapiens, HAP1, viability assay. It is filed as cell-based.
Assay [1] deals with HAP1 MTAP-intact cell line. Put plainly: SDMA in-cell western assay, HAP1 MTAP-intact. The conditions noted are these: Homo sapiens.
The subject of assay [2] is HAP1 MTAP-deleted cell line. Put plainly: SDMA in-cell western assay, HAP1 MTAP-deleted. The following applies: for IC50 / IC90: Homo sapiens; for Hap1 MTAP intact/deleted ratio: IC50 ratio between HAP1 MTAP-intact and HAP1 MTAP-deleted cell line.
The mark [3] stands for this setting: HAP1, read-out: Hap1 MTAP intact IC50, SDMA in-cell western, HAP1 MTAP-intact cell line.
[4] abbreviates: HAP1, read-out: Hap1 MTAP deleted IC50, SDMA in-cell western, HAP1 MTAP-deleted cell line.
Where [5] appears, read: HAP1, read-out: Hap1 MTAP deleted IC90, SDMA in-cell western, HAP1 MTAP-deleted cell line.
Setting [6] is: HAP1, read-out: Hap1 MTAP intact IC50, SDMA in-cell western assay, HAP1 MTAP-intact cell line.
[7] abbreviates: HAP1, read-out: Hap1 MTAP deleted IC50, SDMA in-cell western assay, HAP1 MTAP-deleted cell line.
Setting [8] is: HAP1, read-out: Hap1 MTAP deleted IC90, SDMA in-cell western assay, HAP1 MTAP-deleted cell line.

Regarding `CCN1CCC(c2nc3cc([C@H]4CC[C@H](C)CN4C(=O)C(=O)Nc4cncc5cn[nH]c45)ccc3s2)CC1` [Compound 37, 2-((2R,5S)-2-(2-(1-ethylpiperidin-4-yl)benzo[d]thiazol-5-yl)-5-methylpiperidin-1-yl)-2-oxo-N-(1H-pyrazolo[4,3-c]pyridin-7-yl)acetamide], the IC50 with MTAP-deleted cell line was less than 0.1 µM; in assay [1] (setting [3]), 0.005 to 0.05 µM; in assay [2] (setting [4]) it was less than 0.005 µM. Also, the IC90 in assay [2] (setting [5]) was less than 0.075 µM. For the same molecule, the “Hap1 MTAP intact/deleted ratio” value in assay [2] (SDMA in-cell western) is “B (“B” indicates an IC50 ratio greater than or equal to 15 fold but lower than 30 fold)”.

In the case of `C[C@H]1CC[C@H](c2ccc3ncccc3c2)N(C(=O)C(=O)Nc2cnc(N)c3cn[nH]c23)C1` [Compound 83, N-(4-amino-1H-pyrazolo[4,3-c]pyridin-7-yl)-2-((2R,5S)-5-methyl-2-(quinolin-6-yl)piperidin-1-yl)-2-oxoacetamide], the IC50 in the assay with MTAP-deleted cell line is less than 0.1 µM; in assay [1] (setting [3]) it was 0.005 to 0.05 µM; in assay [2] (setting [4]) it was less than 0.005 µM. In assay [2] (setting [5]), the IC90 is less than 0.075 µM. Besides, the “Hap1 MTAP intact/deleted ratio” value in assay [2] (SDMA in-cell western) is given as “B (“B” indicates an IC50 ratio greater than or equal to 15 fold but lower than 30 fold)”.

For the molecule `C[C@H]1CC[C@H](c2ccc3c(c2)CCN(C)C3)N(C(=O)C(=O)Nc2cnc(N)c3cn[nH]c23)C1` (racemic) [Compound 265, N-(4-Amino-1H-pyrazolo[4,3-c]pyridin-7-yl)-2-oxo-2-[rac-(2R,5S)-5-methyl-2-(2-methyl-3,4-dihydro-1H-isoquinolin-6-yl)-1-piperidyl]acetamide], the IC50 with MTAP-deleted cell line was less than 0.1 µM; in assay [1] (setting [6]) it was 0.005 to 0.05 µM; in assay [2] (setting [7]), less than 0.005 µM. For the same molecule, the IC90 in assay [2] (setting [8]) is less than 0.075 µM. The “Hap1 MTAP intact/deleted ratio” value in assay [2] (SDMA in-cell western assay) is recorded as “C (“C” indicates an IC50 ratio of less than 15 fold)”.

With `C[C@H]1CC[C@H](c2ccc3cn(CCN(C)C)nc3c2)N(C(=O)C(=O)Nc2cncc3cn[nH]c23)C1` [Compound 163, 2-oxo-N-(1H-pyrazolo[4,3-c]pyridin-7-yl)-2-[(2R,5S)-2-[2-[2-(dimethylamino)ethyl]indazol-6-yl]-5-methyl-1-piperidyl]acetamide], the IC50 in the assay on MTAP-deleted cell line is less than 0.1 µM; in assay [1] (setting [3]), greater than 0.05 µM; in assay [2] (setting [4]), less than 0.005 µM. Besides, the IC90 in assay [2] (setting [5]) is less than 0.075 µM. Further, the “Hap1 MTAP intact/deleted ratio” value in assay [2] (SDMA in-cell western) was “A (“A” indicates an IC50 ratio greater than or equal to 30 fold)”.

In the case of `C[C@H]1CC[C@H](c2ccc3sc([C@H]4CCCN(C)C4)nc3c2)N(C(=O)C(=O)Nc2cncc3c(N)nccc23)C1` (relative stereo) [Compound 10, N-(8-amino-2,7-naphthyridin-4-yl)-2-oxo-2-[(2R,5S)-5-methyl-2-[2-[rel-(3S)-1-methyl-3-piperidyl]-1,3-benzothiazol-5-yl]-1-piperidyl]acetamide], the values for the IC50 (in the assay on MTAP-deleted cell line; in assay [1] (setting [3]); in assay [2] (setting [4])) were less than 0.1 µM, greater than 0.05 µM and less than 0.005 µM, respectively. In addition, the IC90 in assay [2] (setting [5]) is less than 0.075 µM. In addition, the “Hap1 MTAP intact/deleted ratio” value in assay [2] (SDMA in-cell western) is listed as “A (“A” indicates an IC50 ratio greater than or equal to 30 fold)”.

For `C[C@H]1CC[C@H](c2ccc3nn(C)cc3c2)N(C(=O)C(=O)Nc2cnc(N)c3cn[nH]c23)C1` [Compound 124, N-(4-amino-1H-pyrazolo[4,3-c]pyridin-7-yl)-2-oxo-2-[(2R,5S)-5-methyl-2-(2-methylindazol-5-yl)-1-piperidyl]acetamide], the IC50 was less than 0.1 µM in the assay on MTAP-deleted cell line, greater than 0.05 µM in assay [1] (setting [3]) and less than 0.005 µM in assay [2] (setting [4]). Besides, the IC90 in assay [2] (setting [5]) is less than 0.075 µM. Also, in assay [2] (SDMA in-cell western), the “Hap1 MTAP intact/deleted ratio” value is “B (“B” indicates an IC50 ratio greater than or equal to 15 fold but lower than 30 fold)”.

As for `CC(C)n1cc2cc([C@H]3CC[C@H](C)CN3C(=O)C(=O)Nc3cnc(N)c4cn[nH]c34)ccc2n1` (racemic) [Compound 231, N-(4-Amino-1H-pyrazolo[4,3-c]pyridin-7-yl)-2-oxo-2-[rac-(2R,5S)-2-(2-isopropylindazol-5-yl)-5-methyl-1-piperidyl]acetamide], the IC50 in the assay on MTAP-deleted cell line is less than 0.1 µM; in assay [1] (setting [6]) it was 0.005 to 0.05 µM; in assay [2] (setting [7]) it was less than 0.005 µM. Also, in assay [2] (setting [8]), the IC90 was less than 0.075 µM. In addition, the “Hap1 MTAP intact/deleted ratio” value in assay [2] (SDMA in-cell western assay) is “A (“A” indicates an IC50 ratio greater than or equal to 30 fold)”.
